13 compounds from ChEMBL document CHEMBL1201862, “PubChem BioAssay data set” (2004) can be followed below.

Holding throughout (test): DTP human tumour cell line panel, 48 h
Assay [1] has as its system A498.
Assay [2] concerns CCRF-CEM.
The subject of assay [3] is DLD-1.
Assay [4] relates to HCT-116.
Assay [5] concerns HCT-15.
In assay [6] the test system is HOP-92.
Assay [7] concerns IGROV-1.
Assay [8] concerns M14.
The test system of assay [9] is NCI-H460.
Assay [10] relates to OVCAR-3.
Assay [11] relates to OVCAR-5.
The test system of assay [12] is OVCAR-8.
The subject of assay [13] is SK-OV-3.
In assay [14] the test system is SNB-75.
The test system of assay [15] is SW-620.
The subject of assay [16] is UACC-257.
Assay [17] has as its system UO-31.

The structures appear in SMILES notation.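 Compound exposure: 48 hours, 5 concentrations, 96-well plates. Abbreviation: GI50, concentration required for 50% inhibition of growth.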 The source made the active and inactive calls. Rule as the data show it: active = GI50 up to about 1.1 µM and inactive = higher.

`N#Cc1c([N+](=O)[O-])cc(C(F)(F)F)cc1[N+](=O)[O-]`: the GI50 in assay [1] is 18.2 µM (inactive); in [2], 1.09 µM (active); in assay [3], 3.87 µM (inactive); in [4], 7.76 µM (inactive); in assay [5], 8.89 µM; in assay [6], 1.81 µM (inactive). For the same compound, the GI50 in [7] was 5.65 µM (inactive); in assay [8], 4.85 µM (inactive); in assay [9] it was 19.7 µM (inactive); in assay [10], 16.7 µM (inactive); in assay [11], 18.1 µM (inactive); in assay [12] it was 2.09 µM (inactive). Further, the GI50 in [13] is 19.1 µM (inactive); in assay [14] it was 6.22 µM (inactive); in [15], 3.26 µM (inactive); in assay [16] it was 6.7 µM (inactive); in [17] it was 19.2 µM (inactive).

Take `O=C1CCC2(c3ccccc3)Nc3ncccc3N12` (centres undefined): the GI50 in assay [1] was > 100 µM (inactive); in assay [2] it was > 100 µM (inactive); in [3], > 100 µM (inactive); in assay [5], more than 100 µM; in [6], > 100 µM (inactive); in [7] it was > 100 µM (inactive). Also, the GI50 in [8], in assay [9], in assay [10], in [11], in assay [12] and in assay [13] was > 100 µM (inactive) in each case. In addition, the GI50 in assay [14] is 61.9 µM (inactive); in assay [15] it was > 100 µM (inactive); in assay [16] it was > 100 µM (inactive); in [17], > 100 µM (inactive).

For the compound `Cn1c2cccc3nnc4cccc(c4c32)n1C`, the GI50 is > 100 µM (inactive) in assay [1]; > 100 µM (inactive) in assay [2]; > 100 µM (inactive) in assay [3]; > 100 µM (inactive) in [4]; more than 100 µM in [5]; > 100 µM (inactive) in [6]. In addition, the GI50 in assay [7], in assay [8], in [9], in [10], in [11] and in [12] was > 100 µM (inactive) each time. In addition, the GI50 in assay [15], in assay [16] and in assay [17] was > 100 µM (inactive) each time.

In the case of `CC(=O)Oc1cc(OC(C)=O)c2cc3c(cc2c1OC(C)=O)C(=O)C1(CCCC1)C3=O`, the GI50 in assay [3] was 20 µM (inactive); in assay [5], 17.8 µM; in [6] it was 15.1 µM (inactive); in assay [7], 17.2 µM (inactive); in assay [8], 17.7 µM (inactive); in [9], 17.5 µM (inactive). Also, the GI50 is 19.3 µM (inactive) in assay [10]; 16.4 µM (inactive) in [12]; 17.6 µM (inactive) in [13]; 14.2 µM (inactive) in assay [14]; 16.3 µM (inactive) in [15]; 16.3 µM (inactive) in assay [17].

With `ON1CCc2c([nH]c3ccccc23)C1c1ccc(Cl)cc1` (centres undefined), the GI50 in [1] was 33.1 µM (inactive); in assay [2], 18.2 µM (inactive); in assay [3] it was 25.2 µM (inactive); in assay [4], 0.384 µM (active); in [6], 16.8 µM (inactive); in assay [8], 42.7 µM (inactive). The GI50 in assay [10] is 27.4 µM (inactive); in assay [11], 31.3 µM (inactive); in assay [12] it was 32.4 µM (inactive); in assay [13] it was 46.7 µM (inactive); in [14], 30.3 µM (inactive); in [15], 33.2 µM (inactive). Also, the figures for the GI50 in assay [16] and in assay [17] were 30.1 µM (inactive) and 25.8 µM (inactive), respectively.

As to `CN(C)CCC(/C=C/c1ccccc1)=N\Nc1ccccc1`, the GI50 is 12.5 µM (inactive) in assay [1]; 0.526 µM (active) in assay [2]; 0.596 µM (active) in assay [3]; 1.9 µM (inactive) in assay [4]; 0.336 µM in [5]; 2.82 µM (inactive) in assay [7]. Moreover, the GI50 is 2.72 µM (inactive) in [8]; 1.41 µM (inactive) in assay [9]; 2.33 µM (inactive) in assay [10]; 1.98 µM (inactive) in assay [11]; 10.7 µM (inactive) in assay [12]; 3.56 µM (inactive) in assay [13]. Also, the GI50 is 3.48 µM (inactive) in assay [14], 0.335 µM (active) in assay [15], 2.42 µM (inactive) in [16] and 1.4 µM (inactive) in assay [17].

In the case of `CCCC1C(=O)C(CC)Cc2c(OC)ccc(OC)c21` (centres undefined), the GI50 was > 100 µM (inactive) in assay [2]; > 100 µM (inactive) in assay [3]; more than 100 µM in assay [5]; > 100 µM (inactive) in assay [6]; > 100 µM (inactive) in [7]; > 100 µM (inactive) in assay [8]. Moreover, the GI50 in assay [9], in [10], in assay [11], in [12], in assay [13] and in assay [14] was > 100 µM (inactive) in each case. Besides, the GI50 in assay [15], in assay [16] and in assay [17] was > 100 µM (inactive) in each case.

For the compound `O=c1c2ccc3cccc4c(=O)cc(c5ccccc15)-c2c34`, the GI50 was > 100 µM (inactive) in [1]; > 100 µM (inactive) in [2]; > 100 µM (inactive) in assay [3]; > 100 µM (inactive) in assay [4]; more than 100 µM in assay [5]; > 100 µM (inactive) in assay [7]. Moreover, the GI50 was > 100 µM (inactive) in [8]; > 100 µM (inactive) in assay [9]; 28.2 µM (inactive) in assay [10]; > 100 µM (inactive) in assay [11]; 28.6 µM (inactive) in assay [12]; > 100 µM (inactive) in assay [13]. Moreover, the GI50 in assay [14], in [15], in [16] and in assay [17] was > 100 µM (inactive) in each case.

With `COc1cc(C)c2c(c1)CN1CN2Cc2cc(OC)cc(C)c21`, the GI50 in assay [2] was 65.6 µM (inactive); in assay [3], 31.4 µM (inactive); in [4] it was 47.9 µM (inactive); in assay [5], 34.8 µM; in assay [6], 35.3 µM (inactive); in assay [7] it was 97.1 µM (inactive). The GI50 was > 100 µM (inactive) in [8]; 64.6 µM (inactive) in assay [9]; 25.5 µM (inactive) in assay [10]; 27.9 µM (inactive) in assay [11]; 85.7 µM (inactive) in [12]; > 100 µM (inactive) in assay [13]. The results for the GI50 in assay [14], in [15] and in assay [17] were 11.2 µM (inactive), > 100 µM (inactive) and 33.1 µM (inactive), respectively.

For `Cc1ccc(C)c(N2C/C(=N\NC(=O)CC#N)C(c3nc4ccccc4s3)C(=O)C2=O)c1` (centres undefined), the GI50 was > 100 µM (inactive) in [1]; > 100 µM (inactive) in [2]; > 100 µM (inactive) in assay [3]; > 100 µM (inactive) in [4]; more than 100 µM in assay [5]; > 100 µM (inactive) in [6]. The GI50 in assay [7], in assay [8], in assay [9], in [10], in assay [12] and in assay [13] was > 100 µM (inactive) throughout. The GI50 in assay [14], in assay [15], in assay [16] and in assay [17] was > 100 µM (inactive) throughout.

`CC/C(C)=C1\CCC(CN2CCOCC2)C1=O` (centres undefined): the GI50 in assay [1] is 21.2 µM (inactive); in [2], 7.91 µM (inactive); in assay [3], 11.9 µM (inactive); in assay [4], 13.9 µM (inactive); in assay [5], 13.4 µM; in [6] it was 14.6 µM (inactive). The GI50 in [7] was 20.4 µM (inactive); in assay [8] it was 17.3 µM (inactive); in [9], 17.8 µM (inactive); in assay [10] it was 15 µM (inactive); in assay [11], 17.5 µM (inactive); in [12], 20.7 µM (inactive). For the same compound, the GI50 was 25.2 µM (inactive) in assay [14], 15.1 µM (inactive) in assay [15], 17.3 µM (inactive) in assay [16] and 21.6 µM (inactive) in assay [17].

Turning to `O=C(NC1C2CC3CC(C2)CC1C3)c1ccncn1` (centres undefined), the GI50 is > 100 µM (inactive) in [1]; > 100 µM (inactive) in assay [2]; > 100 µM (inactive) in assay [3]; > 100 µM (inactive) in assay [4]; more than 100 µM in [5]; > 100 µM (inactive) in assay [6]. The GI50 in [7], in assay [8], in [9], in assay [10], in assay [11] and in assay [12] was > 100 µM (inactive) each time. The GI50 in assay [14], in [15], in assay [16] and in [17] was > 100 µM (inactive) in each case.

Consider `CC(=O)Oc1ccccc1` [ACETIC ACID PHENYL ESTER], for which the GI50 in assay [1] is > 100 µM (inactive); in assay [2], > 100 µM (inactive); in assay [3], > 100 µM (inactive); in assay [4], > 100 µM (inactive); in assay [5], more than 100 µM; in assay [7], > 100 µM (inactive). Further, the GI50 in assay [8], in assay [9], in assay [10], in assay [11], in assay [12] and in assay [14] was > 100 µM (inactive) in each case. Besides, the GI50 in assay [15], in assay [16] and in assay [17] was > 100 µM (inactive) each time.

Usually GI50 stands for the concentration giving 50% growth inhibition.
